One experiment has as its system endothelin-1 (ET-1). Put plainly: Serum endothelin-1 (ELISA) in the model of arterial hypertension with endothelial dysfunction. Type of experiment: in vivo, rat. To be noted: for ET-1: rat serum at the end of experiment, M ± m, n = 8. The procedure:
(§1) In the model of arterial hypertension with endothelial dysfunction, endothelial NOS blocker N-nitro-L-arginine methyl ester (L-NAME) was administered intraperitoneally, 25 mg/kg, daily, for 7 days. The blocker was administered in 3% sodium chloride in the dose 1 ml/100 g of body weight. This combination of NO-synthase inhibitor with hypertonic solution provides RAAS activation, aldosterone discharge, retention of sodium and water, functional impairment of the vascular endothelium.
(§2) The animals were divided into the arms as follows: 1—intact animals; 2—control group, males (L-NAME+NaCl; physiological saline as placebo); 3—male rats that received AS-6 in the dose 0.5 mg/kg (Dose 1); 4—male rats that received AS-6 in the dose 5 mg/kg (Dose 2); 5—male rats that received AS-6 in the dose 10 mg/kg (Dose 3); 6—virgin female rats (only in the assessment of the sexual activity). Each group included 8 animals.
(§3) Biochemical parameters were assessed with the use of prearranged kits (USCN Life Science Inc., USA, Bender MedSystems GmbH, Austria, R&D Systems, USA). The measurement was performed with the use of multifunctional photometer Synergy-2 (BioTek Instruments, Inc., USA). All studies were conducted in compliance with current laboratory regulations.
(§4) The assessment of endothelin-1, vascular endothelial growth factor and nitric oxide levels was performed in the rats' serum at the end of experiment with the use of immuno-enzyme analysis and spectrophotometric analysis with species-specific (rat-specific) antibodies.
Quantitative measurement of endothelin-1 (ET-1) was performed with the use of ELISA with USCN Life Science Inc. (USA) kits. Serum samples of the experimental animals (50 mcL) and standards of known concentrations were introduced into the plate wells. Then, 50 mcL of detecting solution (reagent A) were introduced. After 1-hour incubation at 37° C., the wells were 3-fold rinsed, and 100 mcL of detecting solution (reagent B) were introduced into each well. Thereafter, the plate was incubated again at 37° C. for 30 minutes. The plate was rinsed with washing buffer 5 times, and 90 mcL of TMB substrate were introduced into each well. After 15-minute incubation at 37° C., 50 mcL of stop-solution were added. The reaction was read at 450 nm.
In general terms: ELISA stands for enzyme-linked immunosorbent assay.

The subject of experiment [1] is purified sGC obtained of the rabbit's lungs. To be noted: AS-6 100 mcmol/L, in vitro; cited from earlier work.
Another experiment has as its system nitric oxide (NO). Put plainly: Serum unbound nitric oxide (spectrophotometry, Griss reagent) in the model of arterial hypertension with endothelial dysfunction. Type of experiment: in vivo, rat. The following applies: for NO: rat serum at the end of experiment, M ± m, n = 8. The procedure:
as §1, §2, §3, §4
Quantitative measurement of unbound nitric oxide was performed with the use spectrophotometry with R&D Systems kits (USA). The proteins were precipitated with zinc sulphate/sodium hydroxide. Serum supernatant samples of the experimental animals (50 mcL) and standards of known concentrations were introduced into the plate wells. Then, 50 mcL of sample diluent, Griss reagent 1 and Griss reagent 2 were added. The reaction was read at 540 and 690 nm after 10-minute incubation at 37° C.

Marks after values point to notes of the source that are not given here.

Consider `[O-]c1n[n+](-c2nc[nH]n2)no1` [AS-6, 3-(3-[1,2,4]-triazolo)-oxatriazolium-5-olate], for which, in the experiment on endothelin-1 (ET-1) (most significant at 10 mg/kg, p=0.010 vs. control), the “effect on endothelin-1 levels” value is on record as “significant favourable changes of endothelin-1 levels”. The ET-1 came out at 2.48 ± 0.50 pg/mL in the experiment on endothelin-1 (ET-1) (AS-6 0.5 mg/kg), 1.75 ± 0.48 pg/mL in the experiment with endothelin-1 (ET-1) (AS-6 5.0 mg/kg) and 0.78 ± 0.29 pg/mL in the experiment with endothelin-1 (ET-1) (AS-6 10.0 mg/kg). Besides, the “sGC activation compared to the basal activity” value in experiment [1] is “up to 30 fold”. In addition, the “effect on nitric oxide (NO) production” value with nitric oxide (NO) (exceeded the level of treatment-naive animals at 10 mg/kg) is “dose-dependent increase of nitric oxide (NO) production”. The NO is given as 8.83 ± 1.06 mcmol/l with nitric oxide (NO) (AS-6 0.5 mg/kg), 10.75 ± 0.55^ mcmol/l in the experiment on nitric oxide (NO) (AS-6 5.0 mg/kg) and 14.08 ± 1.25*^ mcmol/l in the experiment with nitric oxide (NO) (AS-6 10.0 mg/kg).

The values are drawn from patent publication US9795593B2, “Use of 3-(3-[1,2,4]-triazolo)-oxatriazolium-5-olate for treating sexual disorders” (LIMITED LIABILITY COMPANY “KONSORTSIUM-PIK”, priority 2014, dated 2017).
